Assay: xn = mol fraction of the nth substance listed

CCC(C)O (configuration not stated) + CN(C)C=O
viscosity [mPa·s], 101 kPa
Settings | 298.15 K | 303.15 K | 308.15 K | 313.15 K
x2 = 0.085 | 2.48 | 2.11 | 1.78 | 1.52
x2 = 0.164 | 2.2 | 1.83 | 1.57 | 1.35
x2 = 0.2446 | 2 | 1.65 | 1.41 | 1.23
x2 = 0.3503 | 1.8 | 1.5 | 1.29 | 1.13
x2 = 0.4398 | 1.65 | 1.39 | 1.19 | 1.07
x2 = 0.5035 | 1.51 | – | – | –
x2 = 0.5738 | 1.44 | 1.23 | 1.08 | 1.01
x2 = 0.6512 | 1.32 | 1.14 | 1.02 | 0.97
x2 = 0.7515 | 1.17 | 1.03 | 0.93 | 0.91
x2 = 0.841 | 1.03 | 0.93 | 0.85 | 0.86
x2 = 0.9435 | 0.88 | 0.82 | 0.76 | 0.79

Cc1ccc(O)cc1 + CN(C)C=O
viscosity [mPa·s], 101 kPa
Settings | 303.15 K | 308.15 K | 313.15 K | 318.15 K
x1 = 0.0758 | 0.908 | 0.787 | 0.769 | 0.732
x1 = 0.1553 | 1.098 | 0.988 | 0.913 | 0.845
x1 = 0.2404 | 1.444 | 1.208 | – | 1.087
x1 = 0.3298 | 1.832 | 1.611 | 1.465 | 1.339
x1 = 0.4247 | 2.452 | 2.165 | 1.952 | 1.755
x1 = 0.5155 | – | 2.886 | – | –
x1 = 0.5255 | 3.351 | – | – | 2.273
x1 = 0.5256 | – | – | 2.562 | –
x1 = 0.6327 | 4.534 | 3.905 | 3.375 | 2.954
x1 = 0.7472 | 6.256 | 5.298 | 4.489 | 3.852
x1 = 0.8692 | 7.994 | 6.386 | 5.777 | 4.485

CC(O)CC(C)(C)O (configuration not stated) + CN(C)c1ccccc1
viscosity [mPa·s], 101 kPa
Settings | x1 = 0.0947 | x1 = 0.1893 | x1 = 0.2866 | x1 = 0.3878 | x1 = 0.4988 | x1 = 0.5875 | x1 = 0.6895 | x1 = 0.7899 | x1 = 0.8859
308.15 K | 1.042 | 1.107 | 1.216 | 1.395 | 1.761 | 2.037 | 2.999 | 5.285 | 9.275
318.15 K | 0.8643 | 0.9274 | 1.015 | 1.185 | 1.416 | 1.688 | 2.505 | 4.534 | 8.117

C1CC[NH2+]C1.CCCCCCCC(=O)[O-] + CO
viscosity [mPa·s], 101 kPa
Settings | x1 = 0.1021 | x1 = 0.2025 | x1 = 0.3023 | x1 = 0.3896 | x1 = 0.5185 | x1 = 0.5972 | x1 = 0.7086 | x1 = 0.7895 | x1 = 0.844
293.15 K | 4.58 | 7.4 | 10.73 | 14.46 | 22.6 | 28 | 38.68 | 47.37 | 55.2
298.15 K | 3.6 | 6.53 | 10.37 | 13.1 | 19.44 | 24.57 | 33.84 | 41.18 | 48.18
303.15 K | 3.6 | 6 | 8.9 | 10.82 | 15.84 | 20.9 | 27.67 | 34.45 | 38.6
308.15 K | 4.08 | 5.69 | 8.64 | 10.07 | 15.33 | 19.02 | 24.21 | 29.56 | 33.63
313.15 K | 4 | 5.4 | 7.17 | 9.15 | 13.26 | 15.69 | 21.37 | 25.39 | 28.41

CCC(C)O (configuration not stated) + CO
298.15 K, 101.33 kPa
Settings | viscosity [mPa·s]
x2 = 0.1153 | 2.681
x2 = 0.2124 | 2.341
x2 = 0.2972 | 2.063
x2 = 0.3974 | 1.765
x2 = 0.4714 | 1.563
x2 = 0.5959 | 1.263
x2 = 0.671 | 1.102
x2 = 0.8045 | 0.852
x2 = 0.8927 | 0.711

Cc1cccc(C)c1 + CO
293.15 K, 101 kPa
Settings | viscosity [mPa·s]
x2 = 0.2 | 0.622
x2 = 0.4 | 0.626
x2 = 0.5 | 0.646
x2 = 0.6 | 0.662
x2 = 0.7 | 0.654
x2 = 0.8 | 0.641

O=S1(=O)CCCC1 + CO
viscosity [mPa·s], 101 kPa
Settings | 298.15 K | 303.15 K | 308.15 K | 313.15 K | 323.15 K
x1 = 0.0496 | 0.607 | 0.569 | – | 0.498 | 0.437
x1 = 0.068 | – | 0.5856 | 0.5474 | 0.5133 | –
x1 = 0.0966 | 0.694 | 0.648 | – | 0.565 | 0.495
x1 = 0.1103 | – | 0.6512 | 0.6081 | 0.5686 | –
x1 = 0.1632 | 0.814 | 0.757 | – | 0.661 | 0.579
x1 = 0.1658 | – | 0.756 | 0.7042 | 0.6574 | –
x1 = 0.2274 | – | 0.8999 | 0.8344 | 0.7787 | –
x1 = 0.2282 | 0.985 | 0.916 | – | 0.792 | 0.686
x1 = 0.306 | 1.227 | 1.137 | – | 0.986 | 0.867
x1 = 0.3087 | – | 1.13 | 1.047 | 0.9753 | –
x1 = 0.3969 | 1.587 | 1.458 | – | 1.238 | 1.062
x1 = 0.4056 | – | 1.495 | 1.378 | 1.279 | –
x1 = 0.5037 | 2.208 | 2.022 | – | 1.687 | 1.467
x1 = 0.5284 | – | 2.142 | 1.96 | 1.803 | –
x1 = 0.6337 | 3.233 | 2.982 | – | 2.466 | 2.125
x1 = 0.6422 | – | 3.025 | 2.753 | 2.515 | –
x1 = 0.7703 | – | 4.551 | 4.1 | 3.722 | –
x1 = 0.7949 | 5.516 | 5.126 | – | 4.165 | 3.476

— the CheMixHub viscosity set
